Measurements published in article PMC7343187, “Control of mRNA translation by dynamic ribosome modification” (PLoS Genetics, 2020).

What was measured:
RimK [1] = target: T1, RimK (Pseudomonas fluorescens, UniProt C3KE61); experiment: PK/LDH-coupled ATPase assay (NADH oxidation); assay type: biochemical; settings: 100 mM Tris-Cl pH 9.0, 20 mM MgSO4, 25 °C
T1 construct: His6-tagged, expressed in E. coli BL21(DE3) pLysS, Ni-NTA purified
T1 sequence (C3KE61 1-301): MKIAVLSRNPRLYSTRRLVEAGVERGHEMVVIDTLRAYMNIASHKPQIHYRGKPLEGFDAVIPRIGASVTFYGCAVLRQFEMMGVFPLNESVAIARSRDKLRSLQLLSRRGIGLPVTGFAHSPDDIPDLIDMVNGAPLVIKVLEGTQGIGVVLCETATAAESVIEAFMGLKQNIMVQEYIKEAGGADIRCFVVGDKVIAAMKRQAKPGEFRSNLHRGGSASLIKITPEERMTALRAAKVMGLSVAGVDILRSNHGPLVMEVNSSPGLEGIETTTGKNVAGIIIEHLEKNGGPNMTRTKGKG

RimK [2] = target: T1, RimK; experiment: RpsF glutamation assay, SDS-PAGE and mass spectrometry; assay type: biochemical; settings: acceptor RpsF10glu (SBW25); 20 mM ATP, 20 mM MgSO4, pH 9.0, room temperature
RimK [3] = target: T1, RimK; experiment: PK/LDH-coupled ATPase assay; RpsF glutamation SDS-PAGE gel shift; assay type: biochemical; settings: activator; ATPase with 25 uM cdG, 2.5 uM RimK, pH 9.0, 20 mM MgSO4, 25 °C
[4] = target: SBW25 RimK (Pseudomonas fluorescens SBW25) (UniProt C3KE61)

Nc1ncnc2c1ncn2[C@@H]1O[C@H](COP(=O)(O)OP(=O)(O)OP(=O)(O)O)[C@@H](O)[C@H]1O [ATP]
PK/LDH-coupled ATPase assay (NADH oxidation) (RimK [1]): plotting the specific activity of the enzyme (nmol ATP hydrolyzed/min/mg protein) versus ATP concentration

N[C@@H](CCC(=O)O)C(=O)O [L-glutamate]
RpsF glutamation assay, SDS-PAGE and mass spectrometry (RimK [2]): addition of RimK resulted in unregulated modification of RpsF10glu in a glutamate-dependent manner

Nc1nc2c(ncn2[C@@H]2O[C@@H]3COP(=O)(O)O[C@H]4[C@@H](O)[C@H](n5cnc6c(=O)[nH]c(N)nc65)O[C@@H]4COP(=O)(O)O[C@H]3[C@H]2O)c(=O)[nH]1 [cdG, cyclic-di-GMP]
PK/LDH-coupled ATPase assay; RpsF glutamation SDS-PAGE gel shift (RimK [3]): cdG was shown to stimulate both ATPase activity (Fig 2A) and RpsF modification (Fig 2B)

SBW25 RimA (enzyme)
Kd fitted to the RimK ATPase activity data of Fig 2E with the four-state kinetic model (RimK, RimK.RimA, RimK.cdG, RimK.cdG.RimA) [4]: 200 nM
Kd fitted to the RimK ATPase activity data of Fig 2E with the two-state kinetic model (RimK, RimK*), which the paper calls unlikely [4]: 83.2 nM
